The values below come from ChEMBL document CHEMBL1201862, “PubChem BioAssay data set” (2004).

Test in all cases: NCI anticancer screen, dose series, 48 h
The test system of test [1] is SK-MEL-2.
The test system of test [2] is KM12.
In test [3] the test system is LOX IMVI.
Test [4] has as its system TK-10.
For test [5], the system named is LXFL 529.
Test [6] deals with SNB-19.
In test [7] the test system is DMS-114.
Test [8] has as its system HCT-15.
The test system of test [9] is SW-620.
Test [10] deals with IGROV-1.
In test [11] the test system is SF-268.
The test system of test [12] is DMS-273.
In test [13] the test system is UACC-257.
In test [14] the test system is RXF 393.
Test [15] has as its system NCI-H460.

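Tested at 5 concentrations; 48 h exposure; 96-well plates; endpoints linearly interpolated, else capped at highest concentration. The concentration for 50% growth inhibition is given as GI50.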 Activity calls are given as the source filed them. No stated cut-off is given here; in the data, active = GI50 up to about 1.1 µM and inactive = higher. Some results are limits rather than exact numbers.

`Cc1cc(N(CCC#N)CCC#N)ccc1/N=N/c1cc(Cl)ccc1Cl`: the GI50 in test [1] was 17.3 µM (inactive); in [2] it was 15.2 µM (inactive); in test [3], 3.62 µM (inactive); in test [4], 11.1 µM (inactive); in [5] it was 1.7 µM (inactive); in [6], 17.5 µM (inactive). Further, the GI50 in [7] is 6.59 µM (inactive); in [8], 2.05 µM; in [9], 2.36 µM (inactive); in test [10] it was 15.1 µM (inactive); in test [11], 15.6 µM (inactive); in test [12], 14.4 µM (inactive). In addition, the GI50 in [13] was 10.7 µM (inactive); in test [14] it was 10.5 µM (inactive).

`CC1CCC(=O)C(C(O)CC2CC(=O)N(c3ccccc3)C(=O)C2)C1` (stereo unspecified): the GI50 in test [2], in test [3], in [4], in test [5], in test [6] and in test [7] was > 100 µM (inactive) throughout. The GI50 in test [15], in test [9], in test [10], in test [11], in test [12] and in test [13] was > 100 µM (inactive) each time. The GI50 in [14] was > 100 µM (inactive).

For the compound `Cc1cc(O)nc(NNC(C#N)c2ccc(O)cc2)n1` (stereo unspecified), the GI50 in [1], in test [2], in test [3], in test [4], in test [5] and in test [7] was > 100 µM (inactive) each time. Moreover, the GI50 is > 100 µM (inactive) in test [15]; above 100 µM in test [8]; > 100 µM (inactive) in [9]; > 100 µM (inactive) in [10]; > 100 µM (inactive) in test [11]; > 100 µM (inactive) in [12]. Also, the GI50 in test [13] and in test [14] was > 100 µM (inactive) in each case.

For the compound `COC(=O)/C=c1\s/c(=C\C(=O)OC)c2ccccc12`, the GI50 is > 100 µM (inactive) in [1]; 11.7 µM (inactive) in [2]; > 100 µM (inactive) in test [3]; > 100 µM (inactive) in test [4]; > 100 µM (inactive) in test [5]; > 100 µM (inactive) in test [6]. Further, the GI50 in test [7] is > 100 µM (inactive); in test [8], 33.8 µM; in test [9], > 100 µM (inactive); in test [10] it was > 100 µM (inactive); in [11], > 100 µM (inactive); in test [12], 6.44 µM (inactive). The GI50 in test [13] and in test [14] was > 100 µM (inactive) each time.

Consider `CN[C@@H](C)[C@@H](NC)c1ccccc1`, for which the GI50 in [2], in [3], in test [4], in [5], in test [7] and in [15] was > 100 µM (inactive) throughout. The GI50 in test [8] was above 100 µM; in test [9], > 100 µM (inactive); in test [10], > 100 µM (inactive); in [12], > 100 µM (inactive); in test [13], > 100 µM (inactive); in [14], > 100 µM (inactive).

Regarding `O=C(NCCNCCO)N/N=C/c1cccc([N+](=O)[O-])c1`, the GI50 in test [1], in test [2], in [3], in test [4], in [5] and in [7] was > 100 µM (inactive) each time. Further, the GI50 in [15] is > 100 µM (inactive); in test [8] it was above 100 µM; in test [9], > 100 µM (inactive); in [10] it was > 100 µM (inactive); in test [11], > 100 µM (inactive); in test [12] it was > 100 µM (inactive). Also, the GI50 in test [13] and in [14] was > 100 µM (inactive) in each case.
